Results as given in the supplement of paper PMC10307832.

Tests used:
Assay in all cases: relative viability (nuclei count vs DMSO), 5 days (fraction); higher = more cells survive
Gemcitabine = compound: Nc1ccn([C@@H]2O[C@H](CO)[C@@H](O)C2(F)F)c(=O)n1 [Gemcitabine]
How it was run: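 Lung cancer cell lines were seeded into 1536-well plates, kept overnight at 37 °C and pinned with five library-drug doses (not always all listed) spaced by √10. After 5 days, nuclei were Hoechst-stained, imaged at 4× and counted with MetaXpress. Viability is treated-well nuclei over vehicle-well nuclei, taken as a median across plates. Plates needed control CV below 25% and at least one doubling.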

Gemcitabine + Trametinib = compound: Nc1ccn([C@@H]2O[C@H](CO)[C@@H](O)C2(F)F)c(=O)n1 [Gemcitabine] + CC(=O)Nc1cccc(-n2c(=O)n(C3CC3)c(=O)c3c(Nc4ccc(I)cc4F)n(C)c(=O)c(C)c32)c1 [Trametinib] (partner 0.02 µM)
How it was run: (§1)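 Lung cancer cell lines in 1536-well plates were dosed by pin tool the day after seeding, either with one drug alone or with a fixed anchor-drug dose plus five library-drug doses (not always all listed) in √10 steps. After 5 days, cells were fixed and their nuclei stained in one step (final 0.05% Triton X-100, 1% formaldehyde, 1 ug/ml Hoechst), then counted on 4× images. Relative viability is the nuclei count in treated wells divided by that in vehicle wells. Values are medians of duplicate plates.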

[1] = compound: Nc1ccn([C@@H]2O[C@H](CO)[C@@H](O)C2(F)F)c(=O)n1 [Gemcitabine] + CC(=O)c1c(C)c2cnc(Nc3ccc(N4CCNCC4)cn3)nc2n(C2CCCC2)c1=O [Palbociclib] (partner 0.5 µM)
How it was run: as §1

Gemcitabine + Luminespib = compound: Nc1ccn([C@@H]2O[C@H](CO)[C@@H](O)C2(F)F)c(=O)n1 [Gemcitabine] + CCNC(=O)c1noc(-c2cc(C(C)C)c(O)cc2O)c1-c1ccc(CN2CCOCC2)cc1 [Luminespib] (partner 0.01 µM)
How it was run: as §1

Gemcitabine + OSI-027 = compound: Nc1ccn([C@@H]2O[C@H](CO)[C@@H](O)C2(F)F)c(=O)n1 [Gemcitabine] + COc1cccc2cc(-c3nc([C@H]4CC[C@H](C(=O)O)CC4)n4ncnc(N)c34)[nH]c12 [OSI-027] (partner 0.5 µM)
How it was run: as §1

Gemcitabine + Tozasertib = compound: Nc1ccn([C@@H]2O[C@H](CO)[C@@H](O)C2(F)F)c(=O)n1 [Gemcitabine] + Cc1cc(Nc2cc(N3CCN(C)CC3)nc(Sc3ccc(NC(=O)C4CC4)cc3)n2)n[nH]1 [Tozasertib] (partner 0.1 µM)
How it was run: as §1

Gemcitabine + Dasatinib = compound: Nc1ccn([C@@H]2O[C@H](CO)[C@@H](O)C2(F)F)c(=O)n1 [Gemcitabine] + Cc1nc(Nc2ncc(C(=O)Nc3c(C)cccc3Cl)s2)cc(N2CCN(CCO)CC2)n1 [Dasatinib] (partner 0.075 µM)
How it was run: as §1

Gemcitabine + Phenformin = compound: Nc1ccn([C@@H]2O[C@H](CO)[C@@H](O)C2(F)F)c(=O)n1 [Gemcitabine] + N=C(N)NC(=N)NCCc1ccccc1 [Phenformin] (partner 250 µM)
How it was run: as §1

Gemcitabine + AZD7762 = compound: Nc1ccn([C@@H]2O[C@H](CO)[C@@H](O)C2(F)F)c(=O)n1 [Gemcitabine] + NC(=O)Nc1cc(-c2cccc(F)c2)sc1C(=O)N[C@H]1CCCNC1 [AZD7762] (partner 0.2 µM)
How it was run: as §1

Gemcitabine + Pemetrexed = compound: Nc1ccn([C@@H]2O[C@H](CO)[C@@H](O)C2(F)F)c(=O)n1 [Gemcitabine] + Nc1nc2[nH]cc(CCc3ccc(C(=O)N[C@@H](CCC(=O)O)C(=O)O)cc3)c2c(=O)[nH]1 [Pemetrexed] (partner 0.2 µM)
How it was run: as §1

Gemcitabine + Decitabine = compound: Nc1ccn([C@@H]2O[C@H](CO)[C@@H](O)C2(F)F)c(=O)n1 [Gemcitabine] + Nc1ncn([C@H]2C[C@H](O)[C@@H](CO)O2)c(=O)n1 [Decitabine] (partner 2 µM)
How it was run: as §1

Gemcitabine + Vorinostat = compound: Nc1ccn([C@@H]2O[C@H](CO)[C@@H](O)C2(F)F)c(=O)n1 [Gemcitabine] + O=C(CCCCCCC(=O)Nc1ccccc1)NO [Vorinostat] (partner 1 µM)
How it was run: as §1

Gemcitabine + Olaparib = compound: Nc1ccn([C@@H]2O[C@H](CO)[C@@H](O)C2(F)F)c(=O)n1 [Gemcitabine] + O=C(c1cc(Cc2n[nH]c(=O)c3ccccc23)ccc1F)N1CCN(C(=O)C2CC2)CC1 [Olaparib] (partner 8 µM)
How it was run: as §1

Question: Which relative viability (Gemcitabine; 0.001 µM) does the source give for NCI-H522 here?
Answer: 1.12

Question: What about the relative viability (Gemcitabine; 0.003162 µM) of the same cell line?
Answer: 0.812

Question: And the relative viability (Gemcitabine; 0.01 µM)?
Answer: 0.418

Question: What about the relative viability (Gemcitabine; 0.03162 µM) of the same cell line?
Answer: 0.42

Question: What about the relative viability (Gemcitabine; 0.1 µM) of the same cell line?
Answer: 0.388

Question: What about the relative viability (Gemcitabine + Trametinib; first compound 0.001 µM) of the same cell line?
Answer: 0.705

Question: And the relative viability (Gemcitabine + Trametinib; first compound 0.003162 µM)?
Answer: 0.628

Question: What about the relative viability (Gemcitabine + Trametinib; first compound 0.01 µM) of the same cell line?
Answer: 0.36

Question: What about the relative viability (Gemcitabine + Trametinib; first compound 0.03162 µM) of the same cell line?
Answer: 0.347

Question: And the relative viability (Gemcitabine + Trametinib; first compound 0.1 µM)?
Answer: 0.319

Question: And the relative viability ([1]; first compound 0.001 µM)?
Answer: 0.885

Question: What about the relative viability ([1]; first compound 0.003162 µM) of the same cell line?
Answer: 0.729

Question: And the relative viability ([1]; first compound 0.01 µM)?
Answer: 0.528

Question: What about the relative viability ([1]; first compound 0.03162 µM) of the same cell line?
Answer: 0.394

Question: And the relative viability ([1]; first compound 0.1 µM)?
Answer: 0.364

Question: And the relative viability (Gemcitabine + Luminespib; first compound 0.001 µM)?
Answer: 1.14

Question: What about the relative viability (Gemcitabine + Luminespib; first compound 0.003162 µM) of the same cell line?
Answer: 1.08

Question: And the relative viability (Gemcitabine + Luminespib; first compound 0.01 µM)?
Answer: 0.727

Question: And the relative viability (Gemcitabine + Luminespib; first compound 0.03162 µM)?
Answer: 0.392

Question: What about the relative viability (Gemcitabine + Luminespib; first compound 0.1 µM) of the same cell line?
Answer: 0.368

Question: And the relative viability (Gemcitabine + OSI-027; first compound 0.001 µM)?
Answer: 0.653

Question: What about the relative viability (Gemcitabine + OSI-027; first compound 0.003162 µM) of the same cell line?
Answer: 0.463

Question: What about the relative viability (Gemcitabine + OSI-027; first compound 0.01 µM) of the same cell line?
Answer: 0.384

Question: What about the relative viability (Gemcitabine + OSI-027; first compound 0.03162 µM) of the same cell line?
Answer: 1.12

Question: What about the relative viability (Gemcitabine + OSI-027; first compound 0.1 µM) of the same cell line?
Answer: 0.393

Question: And the relative viability (Gemcitabine + Tozasertib; first compound 0.001 µM)?
Answer: 0.555

Question: And the relative viability (Gemcitabine + Tozasertib; first compound 0.003162 µM)?
Answer: 0.396

Question: What about the relative viability (Gemcitabine + Tozasertib; first compound 0.01 µM) of the same cell line?
Answer: 0.379

Question: What about the relative viability (Gemcitabine + Tozasertib; first compound 0.03162 µM) of the same cell line?
Answer: 0.354

Question: And the relative viability (Gemcitabine + Tozasertib; first compound 0.1 µM)?
Answer: 0.312

Question: And the relative viability (Gemcitabine + Dasatinib; first compound 0.001 µM)?
Answer: 0.987

Question: And the relative viability (Gemcitabine + Dasatinib; first compound 0.003162 µM)?
Answer: 0.722

Question: What about the relative viability (Gemcitabine + Dasatinib; first compound 0.01 µM) of the same cell line?
Answer: 0.384

Question: And the relative viability (Gemcitabine + Dasatinib; first compound 0.03162 µM)?
Answer: 0.42

Question: What about the relative viability (Gemcitabine + Dasatinib; first compound 0.1 µM) of the same cell line?
Answer: 0.36

Question: What about the relative viability (Gemcitabine + Phenformin; first compound 0.001 µM) of the same cell line?
Answer: 0.653

Question: What about the relative viability (Gemcitabine + Phenformin; first compound 0.003162 µM) of the same cell line?
Answer: 0.524

Question: And the relative viability (Gemcitabine + Phenformin; first compound 0.01 µM)?
Answer: 0.47

Question: And the relative viability (Gemcitabine + Phenformin; first compound 0.03162 µM)?
Answer: 0.396

Question: What about the relative viability (Gemcitabine + Phenformin; first compound 0.1 µM) of the same cell line?
Answer: 0.384

Question: And the relative viability (Gemcitabine + AZD7762; first compound 0.001 µM)?
Answer: 0.709

Question: What about the relative viability (Gemcitabine + AZD7762; first compound 0.003162 µM) of the same cell line?
Answer: 0.384

Question: And the relative viability (Gemcitabine + AZD7762; first compound 0.01 µM)?
Answer: 0.286

Question: And the relative viability (Gemcitabine + AZD7762; first compound 0.03162 µM)?
Answer: 0.323

Question: What about the relative viability (Gemcitabine + AZD7762; first compound 0.1 µM) of the same cell line?
Answer: 0.204

Question: And the relative viability (Gemcitabine + Pemetrexed; first compound 0.001 µM)?
Answer: 0.954

Question: What about the relative viability (Gemcitabine + Pemetrexed; first compound 0.003162 µM) of the same cell line?
Answer: 0.953

Question: And the relative viability (Gemcitabine + Pemetrexed; first compound 0.01 µM)?
Answer: 0.419

Question: What about the relative viability (Gemcitabine + Pemetrexed; first compound 0.03162 µM) of the same cell line?
Answer: 0.367

Question: What about the relative viability (Gemcitabine + Pemetrexed; first compound 0.1 µM) of the same cell line?
Answer: 0.316

Question: What about the relative viability (Gemcitabine + Decitabine; first compound 0.001 µM) of the same cell line?
Answer: 0.653

Question: And the relative viability (Gemcitabine + Decitabine; first compound 0.003162 µM)?
Answer: 0.577

Question: And the relative viability (Gemcitabine + Decitabine; first compound 0.01 µM)?
Answer: 0.502

Question: What about the relative viability (Gemcitabine + Decitabine; first compound 0.03162 µM) of the same cell line?
Answer: 0.352

Question: And the relative viability (Gemcitabine + Decitabine; first compound 0.1 µM)?
Answer: 0.342

Question: And the relative viability (Gemcitabine + Vorinostat; first compound 0.001 µM)?
Answer: 0.829

Question: And the relative viability (Gemcitabine + Vorinostat; first compound 0.003162 µM)?
Answer: 0.63

Question: What about the relative viability (Gemcitabine + Vorinostat; first compound 0.01 µM) of the same cell line?
Answer: 0.4

Question: And the relative viability (Gemcitabine + Vorinostat; first compound 0.03162 µM)?
Answer: 0.331

Question: What about the relative viability (Gemcitabine + Vorinostat; first compound 0.1 µM) of the same cell line?
Answer: 0.294

Question: What about the relative viability (Gemcitabine + Olaparib; first compound 0.001 µM) of the same cell line?
Answer: 0.639

Question: And the relative viability (Gemcitabine + Olaparib; first compound 0.003162 µM)?
Answer: 0.641

Question: And the relative viability (Gemcitabine + Olaparib; first compound 0.01 µM)?
Answer: 0.323

Question: What about the relative viability (Gemcitabine + Olaparib; first compound 0.03162 µM) of the same cell line?
Answer: 0.306

Question: And the relative viability (Gemcitabine + Olaparib; first compound 0.1 µM)?
Answer: 0.3
